# Read-outs that look alike come from different tables or passages of the source.
# Key:
# Assay type in all cases: cell-based
# M. kansasii (ATCC 12478) = assay: MIC against M. kansasii (resazurin assay); conditions: Mycobacterium kansasii, ATCC12478, 168 h, Middlebrook 7H9 + ADC, 90% growth inhibition, 7 days
# [1] = tested on: M. abscessus (ATCC 19977); assay: MIC by broth microdilution against M. abscessus; conditions: Mycobacteroides abscessus
# M. avium (ATCC 25291) = assay: MIC against M. avium (resazurin assay); conditions: Mycobacterium avium, ATCC25291, 168 h, Middlebrook 7H9 + ADC, 90% growth inhibition, 7 days
# [2] = tested on: S. aureus (UAMS-1625 strain); assay: MIC by broth microdilution against S. aureus; conditions: Staphylococcus aureus, 20 h, read-out: MIC S. aureus
# [3] = tested on: M. tuberculosis H37Rv (ATCC 27294); assay: microbe, parasite or virus in culture; conditions: Mycobacterium tuberculosis, 120 h
# M. xenopi (ATCC 19250) = assay: MIC against M. xenopi (resazurin assay); conditions: Mycobacterium xenopi, ATCC19250, 168 h, Middlebrook 7H9 + ADC, 90% growth inhibition, 7 days
# [4] = tested on: M. smegmatis (ATCC 700084); assay: MIC against M. smegmatis (resazurin assay); conditions: Mycolicibacterium smegmatis, ATCC700084, Middlebrook 7H9 + ADC, 90% growth inhibition, 20 h
# [5] = tested on: A. baumannii (HUMC1 strain); assay: MIC by broth microdilution against A. baumannii; conditions: Acinetobacter baumannii, RPMI medium supplemented with 10% FCS, 35° C. for 20 hours, visual reading
# [6] = ATCC19977, 20 h, ATCC 19977, Middlebrook 7H9 broth with ADC supplement, visual reading, read-out: MIC M. abscessus
# [7] = ATCC19977, 20 h, read-out: MIC M. abscessus
SMILES,MIC (M. kansasii (ATCC 12478)) [µg/mL],"MIC [1, 6] [µg/mL]",MIC (M. avium (ATCC 25291)) [µg/mL],MIC [2] [µg/mL],MIC [3] [µg/mL],MIC (M. xenopi (ATCC 19250)) [µg/mL],MIC [4] [µg/mL],MIC [5] [µg/mL],"MIC [1, 7] [µg/mL]","MIC ([1]; ATCC19977, tested M. abscessus strains, read-out: MIC value on M. abscessus) [µg/mL]"
CO[C@H]1/C=C/O[C@@]2(C)Oc3c(C)c(O)c4c(c3C2=O)C2=NC3(CCN(CC(C)C)CC3)NC2=C(NC(=O)/C(C)=C\C=C\[C@H](C)[C@H](O)[C@@H](C)[C@@H](O)[C@@H](C)[C@H](OC(=O)CNCCCN(C)C)[C@@H]1C)C4=O [Compound 12],0.0055,1,1.4,0.03,0.003,0.01,0.03,≤ 0.002,–,–
CO[C@H]1/C=C/O[C@@]2(C)Oc3c(C)c(O)c4c(c3C2=O)C2=NC3(CCN(CC(C)C)CC3)NC2=C(NC(=O)/C(C)=C\C=C\[C@H](C)[C@H](O)[C@@H](C)[C@@H](O)[C@@H](C)[C@H](OC(=O)CN2CCC(n3c(=O)[nH]c5ccccc53)CC2)[C@@H]1C)C4=O [Compound 18],0.01,0.5,1.3,0.5,0.002,0.01,0.09,0.03,–,–
CO[C@H]1/C=C/O[C@@]2(C)Oc3c(C)c(O)c4c(c3C2=O)C2=NC3(CCN(CC(C)C)CC3)NC2=C(NC(=O)/C(C)=C\C=C\[C@H](C)[C@H](O)[C@@H](C)[C@@H](O)[C@@H](C)[C@H](OC(=O)CN2CCC(n3c(=O)[nH]c5cc(Cl)ccc53)CC2)[C@@H]1C)C4=O [Compound 19],0.015,0.5,4,4,0.003,0.03,0.24,0.125,–,–
CO[C@H]1/C=C/O[C@@]2(C)Oc3c(C)c(O)c4c(c3C2=O)C2=NC3(CCN(CC(C)C)CC3)NC2=C(NC(=O)/C(C)=C\C=C\[C@H](C)[C@H](O)[C@@H](C)[C@@H](O)[C@@H](C)[C@H](OC(=O)CN2CCC3(CC2)C(=O)NCN3c2ccccc2)[C@@H]1C)C4=O [Compound 20],0.01,0.25,0.5,0.5,0.003,0.03,0.1,0.03,–,–
CO[C@H]1/C=C/O[C@@]2(C)Oc3c(C)c(O)c4c(c3C2=O)C2=NC3(CCN(CC(C)C)CC3)NC2=C(NC(=O)/C(C)=C\C=C\[C@H](C)[C@H](O)[C@@H](C)[C@@H](O)[C@@H](C)[C@H](OC(=O)CN2CCC(O)(Cc3ccccc3)CC2)[C@@H]1C)C4=O [Compound 24],0.01,1,2,0.125,0.004,0.01,0.1,0.016,–,–
CO[C@H]1/C=C/O[C@@]2(C)Oc3c(C)c(O)c4c(c3C2=O)C2=NC3(CCN(CC(C)C)CC3)NC2=C(NC(=O)/C(C)=C\C=C\[C@H](C)[C@H](O)[C@@H](C)[C@@H](O)[C@@H](C)[C@H](OC(=O)CN2CCC(Oc3ccccc3)CC2)[C@@H]1C)C4=O [Compound 25],0.02,1,0.8,1,0.008,0.02,0.1,0.06,–,–
CO[C@H]1/C=C/O[C@@]2(C)Oc3c(C)c(O)c4c(c3C2=O)C2=NC3(CCN(CC(C)C)CC3)NC2=C(NC(=O)/C(C)=C\C=C\[C@H](C)[C@H](O)[C@@H](C)[C@@H](O)[C@@H](C)[C@H](OC(=O)CN2CCC(N3CCCCC3)CC2)[C@@H]1C)C4=O [Compound 26],0.02,0.5,1.15,0.06,0.007,0.06,0.04,≤ 0.002,–,–
CO[C@H]1/C=C/O[C@@]2(C)Oc3c(C)c(O)c4c(c3C2=O)C2=NC3(CCN(CC(C)C)CC3)NC2=C(NC(=O)/C(C)=C\C=C\[C@H](C)[C@H](O)[C@@H](C)[C@@H](O)[C@@H](C)[C@H](OC(=O)CN2CCC3C(CCCN3Cc3ccccc3)C2)[C@@H]1C)C4=O (stereo partly shown) [Compound 28],0.01,–,3.9,0.125,0.003,0.03,0.1,0.016,0.125,–
CO[C@H]1/C=C/O[C@@]2(C)Oc3c(C)c(O)c4c(c3C2=O)C2=NC3(CCN(CC(C)C)CC3)NC2=C(NC(=O)/C(C)=C\C=C\[C@H](C)[C@H](O)[C@@H](C)[C@@H](O)[C@@H](C)[C@H](OC(=O)CN2CCC(NS(=O)(=O)c3ccccc3)CC2)[C@@H]1C)C4=O [Compound 29],0.01,0.25,0.6,0.5,0.003,0.01,0.09,0.03,–,–
CO[C@H]1/C=C/O[C@@]2(C)Oc3c(C)c(O)c4c(c3C2=O)C2=NC3(CCN(CC(C)C)CC3)NC2=C(NC(=O)/C(C)=C\C=C\[C@H](C)[C@H](O)[C@@H](C)[C@@H](O)[C@@H](C)[C@H](OC(=O)CN2CCc3[nH]c5ccccc5c3C2)[C@@H]1C)C4=O [Compound 33],0.01,0.5,0.3,1,0.008,0.7,0.1,0.125,–,–
CO[C@H]1/C=C/O[C@@]2(C)Oc3c(C)c(O)c4c(c3C2=O)C2=NC3(CCN(CC(C)C)CC3)NC2=C(NC(=O)/C(C)=C\C=C\[C@H](C)[C@H](O)[C@@H](C)[C@@H](O)[C@@H](C)[C@H](OC(=O)CN2CCCN(c3ccc(F)cc3)CC2)[C@@H]1C)C4=O [Compound 34],0.009,0.5,0.5,2,0.008,0.01,0.11,0.125,–,–
CO[C@H]1/C=C/O[C@@]2(C)Oc3c(C)c(O)c4c(c3C2=O)C2=NC3(CCN(CC(C)C)CC3)NC2=C(NC(=O)/C(C)=C\C=C\[C@H](C)[C@H](O)[C@@H](C)[C@@H](O)[C@@H](C)[C@H](OC(=O)C[n+]2ccc(N(C)C)cc2)[C@@H]1C)C4=O [Compound 35],0.003,0.5,0.8,0.06,0.0025,0.04,0.03,≤ 0.002,–,–
CO[C@H]1/C=C/O[C@@]2(C)Oc3c(C)c(O)c4c(c3C2=O)C2=NC3(CCN(CC(C)C)CC3)NC2=C(NC(=O)/C(C)=C\C=C\[C@H](C)[C@H](O)[C@@H](C)[C@@H](O)[C@@H](C)[C@H](OC(=O)CN2CCC(N(C)c3ccccc3)CC2)[C@@H]1C)C4=O [Compound 39],0.003,–,0.4,0.125,0.0001,0.003,0.06,≤ 0.03,0.125,–
CO[C@H]1/C=C/O[C@@]2(C)Oc3c(C)c(O)c4c(c3C2=O)C2=NC3(CCN(CC(C)C)CC3)NC2=C(NC(=O)/C(C)=C\C=C\[C@H](C)[C@H](O)[C@@H](C)[C@@H](O)[C@@H](C)[C@H](OC(=O)CN2CCN(CC3CCCCC3)CC2)[C@@H]1C)C4=O [Compound 40],0.008,0.125,0.19,0.25,0.004,0.05,0.02,0.125,–,–
CO[C@H]1/C=C/O[C@@]2(C)Oc3c(C)c(O)c4c(c3C2=O)C2=NC3(CCN(CC(C)C)CC3)NC2=C(NC(=O)/C(C)=C\C=C\[C@H](C)[C@H](O)[C@@H](C)[C@@H](O)[C@@H](C)[C@H](OC(C)=O)[C@@H]1C)C4=O [Rifabutin],0.001,8,0.15,0.016,0.0003,0.01,0.14,≤ 0.002,–,8

# Reference: patent publication US20250235434A1, “RIFABUTIN ANALOGS FOR THE TREATMENT OF DISEASE” (BIOVERSYS AG, priority 2022, published 2025)
